{"source": "patent US7053052B2", "about": "“Therapies involving mutated heat shock transcription factor” (priority 1997, dated 2006)", "system": "HepG2 cells", "test": "Mortality from exposure to cyclophosphamide (LDH release, mortality)", "conditions": "20 mM, 24 hour exposure"}
{"smiles": "O=P1(N(CCCl)CCCl)NCCCO1", "note": "(stereo not shown) [cyclophosphamide, reference compound]", "values": [{"measurement": "mortality caused by cyclophosphamide", "result": 38, "unit": "%"}]}
